Among the test systems are HOP-92 NSCLC; SN12C renal; NCI-H522 lung; KM12 colon; RPMI-8226 leukemia; MCF7 breast; SF-295 CNS; UACC-62 melanoma; HOP-62 NSCLC; SF-539 CNS.
Test in all cases: NCI-60 cell line screen, 48 h

SMILES strings stand for the structures. Values joined by “and” are separate entries in the source; they are usually repeats but may differ in a detail not shown here. Identical values can stand only once.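 Step 1: Grow cells in 96-well plates. Step 2: Expose to compound for 48 hours at 5 concentrations. Step 3: Interpolate endpoints linearly; if unreached, use highest concentration. The concentration for 50% growth inhibition is given as GI50. Definition used: TGI = concentration required for complete inhibition of growth.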 A value given as a limit tells only on which side of the number the result lay.

For the compound `O=C(NCc1ccc(Cn2c(=O)sn(-c3ccccc3)c2=O)cc1)OCc1ccc2cccc(O)c2n1`, the GI50 was 0.459 µM in the experiment on HOP-92 NSCLC; 0.907 µM in the experiment with SN12C renal; 0.407 µM in the experiment with NCI-H522 lung; 1.54 µM with KM12 colon; 0.37 µM in the experiment on RPMI-8226 leukemia; 0.331 µM with MCF7 breast. Also, the GI50 in the experiment with SF-295 CNS was 2.14 µM; in the experiment with UACC-62 melanoma, 1.17 µM; in the experiment on HOP-62 NSCLC, 1.55 µM; in the experiment on SF-539 CNS, 1.05 µM. Besides, the TGI worked out at 1.97 µM in the experiment with HOP-92 NSCLC; 2.24 µM in the experiment with SN12C renal; 1.69 µM in the experiment with NCI-H522 lung; 3.02 µM with KM12 colon; 4.97 µM in the experiment on RPMI-8226 leukemia; 2.12 µM in the experiment with MCF7 breast. The TGI was determined as 5.82 µM with SF-295 CNS, 2.44 µM in the experiment on UACC-62 melanoma, 3.52 µM in the experiment on HOP-62 NSCLC and 2.3 µM in the experiment with SF-539 CNS.

Take `Nc1ccccc1O.O.O=C(O)C1[O][Sb][O]C1C(=O)O` (stereo unspecified): the GI50 is 21 µM in the experiment with HOP-92 NSCLC; 7.7 µM in the experiment on SN12C renal; 2.17 µM in the experiment with NCI-H522 lung; greater than 66.2 µM with KM12 colon; 1.51 µM in the experiment on RPMI-8226 leukemia; 12.6 µM in the experiment on MCF7 breast. Moreover, the GI50 was 39.9 µM in the experiment on SF-295 CNS, 15.1 µM with UACC-62 melanoma, 17.6 µM in the experiment with HOP-62 NSCLC and 17.9 µM in the experiment on SF-539 CNS. Besides, the TGI was 40.2 µM with HOP-92 NSCLC; 21.3 µM with SN12C renal; 6.24 µM in the experiment with NCI-H522 lung; greater than 100 µM in the experiment with KM12 colon; 6.56 µM in the experiment on RPMI-8226 leukemia; 37.7 µM in the experiment on MCF7 breast. The TGI in the experiment with SF-295 CNS is greater than 100 µM; in the experiment on UACC-62 melanoma, 30.3 µM; in the experiment with HOP-62 NSCLC it was 35 µM; in the experiment with SF-539 CNS, 37.4 µM.

As for `C#CCOc1cccc(Nc2ncnc3c(NC(=O)C=C)cccc23)c1`, the GI50 is 13.6 µM in the experiment on HOP-92 NSCLC; 16.5 µM in the experiment on SN12C renal; 14.1 µM in the experiment with NCI-H522 lung; 20.3 µM in the experiment with KM12 colon; 8.46 µM in the experiment with RPMI-8226 leukemia; 21.2 µM in the experiment with MCF7 breast. Further, the GI50 is 27.4 µM in the experiment on SF-295 CNS, 12.3 µM in the experiment with UACC-62 melanoma, 27.8 µM in the experiment with HOP-62 NSCLC and 14 µM with SF-539 CNS. For the same compound, the TGI with HOP-92 NSCLC is 42.6 µM; in the experiment with SN12C renal, 62.6 µM; in the experiment with NCI-H522 lung it was 32.6 µM; in the experiment with KM12 colon, greater than 100 µM; with RPMI-8226 leukemia it was 47.2 µM; in the experiment on MCF7 breast, greater than 100 µM. Besides, the TGI in the experiment with SF-295 CNS is greater than 100 µM; in the experiment on UACC-62 melanoma it was 37.3 µM; in the experiment on HOP-62 NSCLC, greater than 100 µM; in the experiment with SF-539 CNS, 36 µM.

Take `NNCCc1ccc(NC(=O)CCCc2ccc(C(=O)Nc3ccccc3N)cc2)cc1`: the GI50 in the experiment with HOP-92 NSCLC is 7.26 µM; in the experiment with SN12C renal it was 28 µM; in the experiment with NCI-H522 lung it was 8.13 µM; in the experiment with KM12 colon, 29.1 µM; in the experiment with RPMI-8226 leukemia, 3.18 µM; with MCF7 breast, 6.84 µM. In addition, the GI50 in the experiment with SF-295 CNS was 13.3 µM; with UACC-62 melanoma it was 3.79 µM; in the experiment on HOP-62 NSCLC, 10.8 µM; in the experiment on SF-539 CNS it was 9.57 µM. Also, the TGI in the experiment on HOP-92 NSCLC, in the experiment with SN12C renal, in the experiment on NCI-H522 lung, with KM12 colon, in the experiment with RPMI-8226 leukemia and in the experiment on MCF7 breast was greater than 100 µM each time. In addition, the TGI in the experiment with SF-295 CNS was greater than 100 µM; in the experiment on UACC-62 melanoma it was 31.8 µM; in the experiment with HOP-62 NSCLC, greater than 100 µM; in the experiment with SF-539 CNS, greater than 100 µM.

As to `CN(C)C(=S)SSC(=S)N(C)C`, the GI50 in the experiment on HOP-92 NSCLC was 17.3 µM and 59.5 µM and 18.4 µM; with SN12C renal, 14.7 µM; with MCF7 breast, 0.478 µM; in the experiment with UACC-62 melanoma it was 15.8 µM; in the experiment on HOP-62 NSCLC, 18 µM; in the experiment with SF-539 CNS, 16.3 µM and 40.8 µM and 10.7 µM. Further, the TGI was 42.8 µM and > 100 µM and 36.7 µM in the experiment on HOP-92 NSCLC; 28.7 µM and > 46.4 µM and 54.5 µM in the experiment on SN12C renal; 14.7 µM and 10.4 µM and 8.24 µM in the experiment on NCI-H522 lung; 24.7 µM and 11.1 µM and 45.4 µM in the experiment on KM12 colon; 49.1 µM and 16.1 µM and 58.9 µM in the experiment on RPMI-8226 leukemia; 22.7 µM and 39.3 µM and > 93.5 µM in the experiment on MCF7 breast. Also, the TGI was 81.9 µM and > 100 µM and 57.1 µM in the experiment on SF-295 CNS; 32.8 µM and > 41.6 µM and 28.2 µM with UACC-62 melanoma; 34.8 µM and > 100 µM in the experiment with HOP-62 NSCLC; 31.9 µM and > 100 µM and > 45.8 µM in the experiment with SF-539 CNS.

For `CCCC/C(=C\C1=C(C)C(=O)C(OC)=C(OC)C1=O)C(=O)O`, the GI50 is 23.5 µM in the experiment on HOP-92 NSCLC; greater than 100 µM in the experiment with SN12C renal; greater than 100 µM in the experiment on NCI-H522 lung; greater than 100 µM with KM12 colon; greater than 100 µM in the experiment with RPMI-8226 leukemia; greater than 100 µM in the experiment on MCF7 breast. Besides, the GI50 in the experiment on SF-295 CNS, in the experiment with UACC-62 melanoma, with HOP-62 NSCLC and in the experiment with SF-539 CNS was greater than 100 µM in each case. For the same compound, the TGI in the experiment on HOP-92 NSCLC is 86.7 µM; with SN12C renal it was greater than 100 µM; with NCI-H522 lung it was greater than 100 µM; in the experiment on KM12 colon, greater than 100 µM; with RPMI-8226 leukemia, greater than 100 µM; in the experiment on MCF7 breast, greater than 100 µM. Further, the TGI with SF-295 CNS, in the experiment on UACC-62 melanoma, in the experiment with HOP-62 NSCLC and in the experiment with SF-539 CNS was greater than 100 µM in each case.
